Patent US10517889B2, “Modulators of SMAD7 expression” (Ionis Pharmaceuticals, Inc., priority 2017, dated 2019)
Strand notation (5' to 3'): a small letter for the sugar, then the base; units joined by * are phosphorothioate-linked, units joined directly phosphodiester-linked; [ ] holds rarer units or linkages, { } end groups; capitals alone tell only the bases. k = constrained ethyl (cEt); [5mC] = 5-methylcytosine; d = 2'-deoxy (DNA)

These substances were tested on human SMAD7 mRNA (assay: Antisense inhibition of human SMAD7 mRNA expression in Hep3B cells by 3-10-3 cEt gapmers, 10,000 nM, electroporation (Example 2)). Details: Hep3B cells, 10,000 nM antisense oligonucleotide, electroporation, approximately 24 hours, RT-PCR primer probe set RTS5062, relative to untreated control cells.
Assay type: cell-based
Method in brief: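 Hep3B, 20,000 cells/well; electroporation, 10,000 nM ASO; ~24 h. Readout: SMAD7 mRNA by qRT-PCR (RTS5062), RIBOGREEN-normalised; % inhibition vs untreated.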

| Substance | % Inhibition |
| --- | --- |
| 798893 (kT*kG*kG*d[5mC]*d[5mC]*d[5mC]*d[5mC]*dA*dG*d[5mC]*d[5mC]*d[5mC]*dT*kT*k[5mC]*kA; antisense) [compound 798893] | 77% |
| 799919 (antisense kT*k[5mC]*k[5mC]*dT*dA*dA*dG*dA*dG*d[5mC]*dA*dT*dT*kT*kA*kT) [compound 799919] | 0% |
| 798912 (kT*k[5mC]*k[5mC]*dG*d[5mC]*dA*d[5mC]*dG*d[5mC]*dG*dG*d[5mC]*dT*kA*k[5mC]*k[5mC]; antisense) [compound 798912] | 22% |
| 799912 (antisense k[5mC]*kT*k[5mC]*dA*dG*dA*dG*dG*dA*dA*dG*dG*dG*kT*kG*kG) [compound 799912] | 22% |

Same assay, conditions: Hep3B cells, electroporation with 10,000 nM antisense oligonucleotide, approximately 24 hours, RTS5062, percent inhibition of SMAD7 mRNA relative to untreated control cells

| Substance | % Inhibition |
| --- | --- |
| 799311 (antisense k[5mC]*kT*kT*dT*dA*dA*dG*d[5mC]*dA*d[5mC]*dG*d[5mC]*dT*k[5mC]*kT*kA) [compound 799311] | 27% |
| 799316 (antisense kA*kA*kA*d[5mC]*dA*d[5mC]*d[5mC]*dA*dA*dG*dA*dT*d[5mC]*k[5mC]*kA*kT) [compound 799316] | 0% |
| 799611 (kT*kG*kT*dG*dA*dA*dA*dG*dA*dG*dG*d[5mC]*dT*k[5mC]*kA*kG; antisense) [compound 799611] | 37% |
| 799314 (antisense k[5mC]*kA*kA*dG*dA*dT*d[5mC]*d[5mC]*dA*dT*d[5mC]*dT*dT*kT*kA*kA) [compound 799314] | 0% |
| 799626 (kA*kG*k[5mC]*dT*dT*dG*d[5mC]*dA*d[5mC]*d[5mC]*d[5mC]*dA*dG*k[5mC]*kA*kA; antisense) [compound 799626] | 41% |
| 799569 (k[5mC]*kT*k[5mC]*dT*dA*dG*dG*dT*d[5mC]*d[5mC]*d[5mC]*dT*d[5mC]*kT*kT*kT; antisense) [compound 799569] | 24% |

Same assay, conditions: Hep3B cells, electroporation with 10,000 nM antisense oligonucleotide, approximately 24 hours, SMAD7 mRNA by RT-PCR (RTS5062), relative to untreated control cells

| Substance | % Inhibition |
| --- | --- |
| 798864 (kG*kT*k[5mC]*d[5mC]*dG*dG*dG*dT*dT*dG*dT*d[5mC]*d[5mC]*kA*kG*kT; antisense) [compound 798864] | 33% |
| 830148 (antisense kG*kG*kA*d[5mC]*dT*dG*dG*dT*d[5mC]*dT*dT*d[5mC]*dA*k[5mC]*k[5mC]*kA) [compound 830148] | 19% |
| 800105 (antisense kT*k[5mC]*k[5mC]*dT*dA*dG*dA*dA*dT*dG*dA*dA*dG*kA*k[5mC]*kA) [compound 800105] | 17% |
| 830071 (kT*k[5mC]*kA*dA*dA*dG*dG*dT*dA*dA*dG*d[5mC]*d[5mC]*kA*kG*k[5mC]; antisense) [compound 830071] | 45% |
| 799907 (antisense kA*kG*kT*dA*dA*dA*dG*dG*dG*d[5mC]*d[5mC]*dT*d[5mC]*kT*k[5mC]*kT) [compound 799907] | 10% |
| 800062 (antisense k[5mC]*k[5mC]*k[5mC]*d[5mC]*dA*dA*dG*d[5mC]*dT*dG*dG*d[5mC]*d[5mC]*kT*kT*k[5mC]) [compound 800062] | 25% |
| 799985 (kA*kA*k[5mC]*dA*dT*d[5mC]*dA*d[5mC]*d[5mC]*dA*d[5mC]*dG*d[5mC]*k[5mC]*kT*k[5mC]; antisense) [compound 799985] | 53% |
| 798921 (kG*kG*k[5mC]*d[5mC]*dT*dG*d[5mC]*dT*d[5mC]*dA*dG*d[5mC]*dT*k[5mC]*kA*k[5mC]; antisense) [compound 798921] | 42% |
| 830104 (kT*kA*kA*dG*d[5mC]*d[5mC]*d[5mC]*dG*d[5mC]*dT*d[5mC]*dT*d[5mC]*kA*kG*k[5mC]; antisense) [compound 830104] | 28% |
| 830189 (antisense kT*kT*kG*dG*dA*dG*d[5mC]*dA*dA*d[5mC]*dA*d[5mC]*d[5mC]*kA*kG*kA) [compound 830189] | 49% |
| 830068 (kG*kT*kG*dA*dA*dA*dT*dG*dG*dT*dG*d[5mC]*dT*k[5mC]*kT*kG; antisense) [compound 830068] | 39% |
| 798715 (antisense kG*k[5mC]*k[5mC]*d[5mC]*dG*dG*dG*d[5mC]*d[5mC]*dG*d[5mC]*d[5mC]*dG*k[5mC]*k[5mC]*kA) [compound 798715] | 0% |
| 799949 (antisense kA*k[5mC]*kT*dG*dG*d[5mC]*d[5mC]*dG*dA*dA*dG*dT*dG*k[5mC]*kA*kG) [compound 799949] | 10% |
| 798679 (antisense k[5mC]*kT*k[5mC]*d[5mC]*dG*d[5mC]*dA*d[5mC]*dA*d[5mC]*d[5mC]*dA*dT*kG*kA*kA) [compound 798679] | 32% |
| 800001 (k[5mC]*kA*kA*dG*dA*dT*dT*d[5mC]*d[5mC]*dA*dT*dT*dT*kA*kG*kG; antisense) [compound 800001] | 2% |
| 799867 (k[5mC]*kT*k[5mC]*d[5mC]*dA*dA*dT*d[5mC]*dT*dG*dG*d[5mC]*dT*kG*kG*kT; antisense) [compound 799867] | 24% |
| 830147 (antisense kG*kA*k[5mC]*dT*dG*dG*dT*d[5mC]*dT*dT*d[5mC]*dA*d[5mC]*k[5mC]*kA*kG) [compound 830147] | 0% |
| 799948 (antisense kA*kT*kA*dT*dT*dG*d[5mC]*d[5mC]*dT*dG*dG*dT*dG*kT*kG*kA) [compound 799948] | 48% |

Same assay, conditions: Hep3B cells, electroporation with 10,000 nM antisense oligonucleotide, approximately 24 hours, primer probe set RTS5062, relative to untreated control cells

| Substance | % Inhibition | % inhibition of SMAD7 mRNA expression |
| --- | --- | --- |
| 799136 (antisense k[5mC]*kT*kT*d[5mC]*dT*dT*dG*dG*dA*dG*dG*dG*dA*kA*kG*kG) [compound 799136] | 3% | – |
| 799460 (antisense k[5mC]*kA*kA*d[5mC]*dA*dG*dA*dG*dT*d[5mC]*dT*dT*dT*kG*kA*kA) [compound 799460] | – | 29% |
| 799381 (antisense kA*kA*k[5mC]*dA*dG*dA*dT*d[5mC]*dT*dA*dT*d[5mC]*dT*k[5mC]*k[5mC]*kT) [compound 799381] | – | 54% |
| 799345 (k[5mC]*kG*kA*dG*dA*dA*dG*d[5mC]*d[5mC]*d[5mC]*dA*dG*dG*k[5mC]*k[5mC]*k[5mC]; antisense) [compound 799345] | – | 20% |
| 799123 (antisense k[5mC]*kT*kT*dG*d[5mC]*dT*dG*dG*d[5mC]*d[5mC]*dT*dA*dA*kT*kA*kG) [compound 799123] | – | 23% |
| 799149 (antisense kG*kG*kA*dT*dG*dG*dT*dA*d[5mC]*d[5mC]*dT*dT*dG*kG*kG*kT) [compound 799149] | – | 46% |
| 799073 (antisense k[5mC]*kG*k[5mC]*dT*dA*d[5mC]*dA*dA*dT*dG*dG*d[5mC]*dA*kG*kG*kG) [compound 799073] | 34% | – |
| 799096 (antisense kA*kA*k[5mC]*d[5mC]*dT*dG*dA*dT*dG*dT*d[5mC]*dA*d[5mC]*k[5mC]*kA*kG) [compound 799096] | 30% | – |
| 799137 (antisense kA*kA*kT*d[5mC]*d[5mC]*dT*dT*d[5mC]*dT*dT*dG*dG*dA*kG*kG*kG) [compound 799137] | 49% | – |
| 798947 (antisense kA*k[5mC]*kA*dG*dA*dA*d[5mC]*dA*d[5mC]*dA*dA*dA*d[5mC]*kG*kA*kG) [compound 798947] | – | 52% |
| 798990 (antisense kG*kA*k[5mC]*dA*dA*dG*dT*dG*dA*dA*dA*dT*dG*kA*kT*kG) [compound 798990] | – | 39% |

Same assay, conditions: Hep3B cells, electroporation, 10,000 nM antisense oligonucleotide, approximately 24 hours, RTS5062, relative to untreated control cells

| Substance | % inhibition of SMAD7 mRNA expression |
| --- | --- |
| 799307 (antisense kT*k[5mC]*kT*dA*dA*dA*d[5mC]*dA*dG*d[5mC]*dA*dT*dG*kA*kA*kA) [compound 799307] | 10% |
| 799305 (antisense k[5mC]*kA*kT*dG*dA*dA*dA*dG*dA*d[5mC]*dA*dA*dA*k[5mC]*k[5mC]*kA) [compound 799305] | 0% |
| 799515 (antisense k[5mC]*k[5mC]*k[5mC]*d[5mC]*dA*dG*dA*d[5mC]*d[5mC]*dT*dG*d[5mC]*dT*kA*kA*kG) [compound 799515] | 38% |

Same assay, conditions: SMAD7 mRNA, Hep3B cells, 10,000 nM antisense oligonucleotide, electroporation, approximately 24 hours, primer probe set RTS5062, relative to untreated control cells

| Substance | % Inhibition |
| --- | --- |
| 790747 (kG*kT*kA*d[5mC]*dA*dA*dT*d[5mC]*dT*d[5mC]*d[5mC]*dT*dG*kG*kA*kA; antisense) [compound 790747] | 8% |
| 801145 (antisense kA*k[5mC]*kG*d[5mC]*dT*dG*dT*dG*dG*dT*dT*dT*dG*kT*kG*kG) [compound 801145] | 0% |
| 800999 (antisense k[5mC]*kA*kT*dT*d[5mC]*dA*dT*dT*dA*dA*dG*d[5mC]*d[5mC]*k[5mC]*kG*k[5mC]) [compound 800999] | 54% |

Same assay, conditions: SMAD7 mRNA, Hep3B cells, electroporation with 10,000 nM antisense oligonucleotide, approximately 24 hours, primer probe set RTS5062, relative to untreated control cells

| Substance | % Inhibition |
| --- | --- |
| 829964 (k[5mC]*kA*k[5mC]*d[5mC]*dT*dA*dG*dT*dT*d[5mC]*dG*d[5mC]*dA*kG*kA*kG; antisense) [compound 829964] | 3% |
| 830004 (antisense kT*kA*kA*dA*dG*dG*d[5mC]*d[5mC]*d[5mC]*dA*dG*d[5mC]*d[5mC]*kA*kT*kG) [compound 830004] | 24% |
| 829931 (kA*kA*k[5mC]*dA*d[5mC]*d[5mC]*dA*dA*dT*d[5mC]*dT*dT*dG*kT*kG*kT; antisense) [compound 829931] | 0% |
| 829979 (kT*kG*kA*dT*dA*dT*dT*dT*dA*dG*d[5mC]*dT*dG*kT*k[5mC]*kA; antisense) [compound 829979] | 49% |
